Data on 4 compounds can be found in patent US7563592B2, “Alizarin-based chromogenic substrates, their uses and composition containing same” (Biomerieux, S.A., priority 1999, dated 2009).

Assay [1] concerns Escherichia coli 115. Briefly: β-galactosidase detection in semi-solid Columbia medium (Example 1). Particulars: 0.2 g/l, no iron citrate. The assay is classed as cell-based.
The test system of assay [2] is Serratia marcescens 042. The assay is described as above. The assay is classed as cell-based. The conditions noted are these: 0.2 g/l, no iron citrate.
Assay [3] deals with Klebsiella pneumoniae 023. Described as above. Particulars: 0.2 g/l, no iron citrate; 48 H. The class given is cell-based.
In assay [4] the test system is Citrobacter koseri 059. The assay is described as follows: Comparison of glucoside substrates in semi-solid Columbia medium (Example 7). The class given is cell-based.
In assay [5] the test system is Klebsiella pneumoniae 023. The description is as above. The class given is cell-based.
Assay [6] relates to Enterococcus faecalis 117. The assay is described as above. The assay is classed as cell-based.
The test system of assay [7] is Listeria innocua 036. Briefly: β-glucosidase detection in API strip wells (Example 6). The conditions noted are these: 0.4 g/l.
Assay [8] relates to eight (8) species tested. Briefly: β-glucosidase detection in API strip wells, all species together (Example 6). The class given is cell-based. Particulars: of the eight (8) species tested; 0.4 g/l.
Assay [9] deals with Listeria ivanovii 018. The assay is described as follows: β-glucosidase detection in API strip wells (Example 6). Particulars: 0.4 g/l.
The subject of assay [10] is Listeria seeligeri 080. The description is as above. Particulars: 0.4 g/l; 24 H.
In assay [11] the test system is Listeria monocytogenes 022. The assay is described as above. The conditions noted are these: 0.4 g/l.
Assay [12] has as its system Enterococcus faecium 009. Described as above. Particulars: 0.4 g/l.
For assay [13], the system named is Klebsiella pneumoniae 023. Described as above. Particulars: 0.4 g/l.
Assay [14] concerns eight strains possessing β-galactosidase activity. Briefly: Fluorescent check of β-galactosidase activity in the eight discordant strains (Example 2). The assay is classed as cell-based. Particulars: all eight strains that selectively hydrolyzed Alizarin-2-β-D-galactoside. An excerpt:
The vast majority of strains (96.5%) reacted in exactly the same way—i.e. either positively or negatively—with both substrates. Eight strains selectively hydrolyzed Alizarin-2-β-D-galactoside. […] Therefore, these substrates are extremely sensitive and can be used at very low concentrations.

Where [15] appears, read: 0.05 g/l + iron citrate 0.05 g/l, 18 H.
The mark [16] stands for this setting: 0.05 g/l + iron citrate 0.05 g/l, 24 H.
Setting [17] is: 0.05 g/l + iron citrate 0.05 g/l, 48 H.
The mark [18] stands for this setting: 0.1 g/l + iron citrate 0.05 g/l, 18 H.
[19] abbreviates: 0.1 g/l + iron citrate 0.05 g/l, 24 H.
The mark [20] stands for this setting: 0.1 g/l + iron citrate 0.05 g/l, 48 H.
Setting [21] is: 0.15 g/l, no iron citrate, 18 H.
The mark [22] stands for this setting: 0.15 g/l, no iron citrate, 24 H.
The mark [23] stands for this setting: 0.15 g/l, no iron citrate, 48 H.

As for `OC[C@H]1O[C@@H](Oc2c[nH]c3cc(Cl)ccc23)[C@H](O)[C@@H](O)[C@H]1O` [6-Chloro-3-indolyl-β-D-galactoside, reference compound], the Color result in assay [1] (18 H), in assay [1] (24 H), in [1] (48 H), in assay [2] (18 H), in assay [2] (24 H) and in assay [2] (48 H) was “pink” throughout. The Color entry in [3] is “pink”. For the same compound, the Intensity in assay [1] (18 H) amounted to 3.5; in assay [1] (24 H), 3.5; in assay [1] (48 H), 3.5; in [2] (18 H) it was 0.3; in [2] (24 H) it was 0.8; in [2] (48 H) it was 3.5. The same compound displayed an Intensity in assay [3] of 0.3.
With `O=C1c2ccccc2C(=O)c2c1ccc(O)c2O[C@@H]1O[C@H](CO)[C@@H](O)[C@H](O)[C@H]1O` [1-Alizarin1-β-D-glucoside, Alizarin-1-β-D-glucoside], the Color entry in assay [4] (setting [15]), in [4] (setting [16]), in assay [4] (setting [17]), in [4] (setting [18]), in assay [4] (setting [19]) and in assay [4] (setting [20]) was “Mauve” in each case. In addition, the Color entry in assay [5] (setting [15]), in assay [5] (setting [16]), in assay [5] (setting [17]), in assay [5] (setting [18]), in assay [5] (setting [19]) and in [5] (setting [20]) was “Purple” each time. Besides, the Color entry in assay [6] (setting [15]), in [6] (setting [16]), in assay [6] (setting [17]), in assay [6] (setting [18]), in assay [6] (setting [19]) and in assay [6] (setting [20]) was “Purple” in each case. Besides, the Intensity was 1.5 arbitrary units in assay [4] (setting [15]); 2 arbitrary units in [4] (setting [16]); 2.5 arbitrary units in assay [4] (setting [17]); 2.5 arbitrary units in assay [4] (setting [18]); 3 arbitrary units in assay [4] (setting [19]); 4 arbitrary units in assay [4] (setting [20]). Further, the Intensity in assay [5] (setting [15]) turned out to be 2.5 arbitrary units; in assay [5] (setting [16]), 3 arbitrary units; in assay [5] (setting [17]), 3.5 arbitrary units; in assay [5] (setting [18]), 3.5 arbitrary units; in assay [5] (setting [19]), 4 arbitrary units; in assay [5] (setting [20]) it was 4 arbitrary units. Further, the Intensity in assay [6] (setting [15]) is 3.5 arbitrary units; in assay [6] (setting [16]), 4 arbitrary units; in assay [6] (setting [17]), 4 arbitrary units; in assay [6] (setting [18]), 3.5 arbitrary units; in [6] (setting [19]) it was 4 arbitrary units; in assay [6] (setting [20]) it was 4 arbitrary units.
As for `OC[C@H]1O[C@@H](Oc2c[nH]c3cc(Cl)ccc23)[C@H](O)[C@@H](O)[C@@H]1O` [reference compound], the Color observed result in [7] (4 H), in assay [7] (24 H), in assay [9] (4 H), in assay [9] (24 H), in [10] and in assay [11] (4 H) was “Pink” throughout. The Color observed entry in assay [11] (24 H), in [12] (4 H), in assay [12] (24 H), in assay [13] (4 H) and in [13] (24 H) was “Pink” each time. In assay [8], the “species in which activity was detected” value is reported as 6 species. Also, the Color entry in [4] (setting [21]), in assay [4] (setting [22]), in assay [4] (setting [23]), in [5] (setting [21]), in assay [5] (setting [22]) and in assay [5] (setting [23]) was “Pink” in each case. Moreover, the Color result in assay [6] (setting [21]), in assay [6] (setting [22]) and in [6] (setting [23]) was “Pink” throughout. Also, the Intensity stood at 0.5 arbitrary units in assay [4] (setting [21]); 1 arbitrary units in assay [4] (setting [22]); 2 arbitrary units in [4] (setting [23]); 2 arbitrary units in assay [5] (setting [21]); 2.5 arbitrary units in [5] (setting [22]); 3 arbitrary units in [5] (setting [23]). Further, the Intensity in [6] (setting [21]) is reported as 1.5 arbitrary units; in assay [6] (setting [22]), 2 arbitrary units; in assay [6] (setting [23]), 2.5 arbitrary units.
On to `Cc1cc(=O)oc2cc(O[C@@H]3O[C@H](CO)[C@H](O)[C@H](O)[C@H]3O)ccc12` [4-Methylumbelliferyl-β-D-galactoside], for which, in [14], the “signal in the presence of the substrate” value is “production of a fluorescent signal”.
